# Source: US20180318291A1, “USE OF AMINOTHIAZOLE MYD88 SPECIFIC INHIBITOR TJM2010-5” (WUHAN INNAMUNE PHARMACEUTICAL INC. LTD., priority 2015, published 2018)
# How the values were obtained:
# Type in all cases: in vivo
# [1] = system: heart of Balb/c mice transplanted to C57bl/6 mice; test: mice heart transplantation model (graft survival); settings: Balb/c heart to C57bl/6; 150 mg/kg intraperitoneal day 0 to day 6; survive up to 100 days
# Source text: 1) Application of TJM2010-5 in Mice Heart Transplantation Model
# Four groups are set in the experiment, which are: control group (conducting heart transplantation without any treatment), CMC group (vehicle control group), TJM2010-5 treatment group (effect detection group) and ciclosporinA (CsA) control group. The specific treatment methods as follows:
# Control group: Take and transplant the heart of Balb/c mice to the abdominal cavity of C57bl/6 mice, and no special treatment is provided after operation;
# CMC control group: Take and transplant the heart of Balb/c mice to the abdominal cavity of C57bl/6 mice, and provide intraperitoneal injection of sodium carboxymethyl cellulose (0.5% CMC) solution without TJM2010-5 on day 0 to day 6 after the heart transplantation, and the dose is 200 μl.
# TJM2010-5 treatment group: Take and transplant the heart of Balb/c mice to the abdominal cavity of C57bl/6 mice, and provide intraperitoneal injection of TJM2010-5 dissolved in CMC on day 0 to day 6 after the heart transplantation, and the dose is 150 mg/kg.
# CsA treatment group: Take and transplant the heart of Balb/c mice to the abdominal cavity of C57bl/6 mice, and provide intraperitoneal injection of CsA on day 0 to day 6 after the heart transplantation, and the dose is 15 mg/kg/day. […]
# [2] = system: skin of Balb/c mice transplanted to C57bl/6 mice; test: mice skin transplantation model (graft survival, tolerance); settings: Balb/c skin to C57bl/6; TJM2010-5 150 mg/kg/d ip, MR1 200 μg/d ip
# Source text: 2) Application of TJM2010-5 combined with costimulatory molecules inhibitor-anti-CD154 monoclonal antibody (MR1) in mice skin transplantation model
# […] are set in the experiment, which are: allogeneic skin grafting control group (the rejection time reported in literature is 8-10 days), TJM2010-5 group, MR1 group and combination treatment group (TJM2010-5+MR1).
# The specific handling methods as follows:
# Allogeneic skin grafting CMC control group: take and transplant the skin of Balb/c mice to the back of C57bl/6 mice, and provide intraperitoneal injection of 0.5% CMC on day 0 to day 3, and day 5, 7, 9, 11, 13, 15 after the operation, the does is 200 μl/day; in the homogenic skin transplantation group: take and transplant the […] of C57bl/6 mice to the back of C57bl/6 mice, and no special treatment is provided after operation.
# The TJM2010-5 Group: take and transplant the skin of Balb/c mice to the back of C57bl/6 mice, and provide intraperitoneal injection of the TJM2010-5 dissolved in 0.5% CMC on day 0 to day 3, and day 5, 7, 9, 11, 13, 15 after the operation, the does is 150 mg/kg/d;
# The MR1 Group: take and transplant the skin of Balb/c mice to the back of C57bl/6 mice, and provide intraperitoneal injection of MR 1 on day 0, 1, 3, 7, 14 after the operation, the does is of 200 μg/d; […]
# mice with pyohemia = test: pyohemia / septicopyemia lethal experiment (cecal ligation and puncture); settings: CLP; 250 mg/kg intragastric 4 times every 12 h; FIG. 15(b)
# Method: Part two: Observe the effect of MyD88 inhibitor on mortality of mice with pyohemia. The mice will be randomly divided into: sham-operation group, model group, MyD88 inhibitor treatment group. Except for the mice in sham-operation group that only receive post-operative suture, the mice in pyohemia model group and MyD88 inhibitor treatment group are provided with the cecal ligation and puncture (CLP), to copy the pyohemia mice model. At 1 h after operation, apply intragastric administration of 0.5% CMC 200 μL or TJM2010-5 of 250 mg/kg (200 μL) for 4 times successively, and each time lasts for 12 h. After operation, observe the survival rate of mice in each group every 12 h, and for 72 h successively.
# C57bl/6 mice kidney IRI = test: renal ischemia reperfusion injury in mice
# Method: 1. Groups: General C57bl/6 group (Control), CMC vehicle group, MYD88KO group, TJ-M2010 group, the 8 mice in each group will be provided with treatment of ischemia reperfusion: narcotize, block the left kidney with vascular clamp, and place them in incubator of 31 C° for 80 min; after that, open it and remove the right kidney, and then close the abdomen. Collect blood 24 hours later to conduct BUN, Cr detection.
# 2. For TJM2010-5 group and CMC group, provide intraperitoneal injection of TJ-M2010-5 dissolved in 0.5% CMC of 150 mg/kg/d on the day before and the day of operation; for CMC group: inject 0.5% CMC solution of 200 μl.
# 3. Observe the survival time of mice, and make the survival curve. Send the blood specimen to the pathology department for detection of BUN, Cr.
compound,measurement,setting,value
"O=C(CCN1CCN(Cc2ccccc2)CC1)Nc1nc(-c2ccccc2)cs1 [TJM2010-5, 3-(4-benzylpiperazin-1-yl)-N-(4-phenylthiazol-2-yl) propanamide]",heart allograft surviving up to 100 days,[1],80%
same,effect on tolerance induction of the skin graft,[2],no obvious effect
same,death time and final mortality of pyohemia in mice,mice with pyohemia,significantly improve
same,survival rate after mice kidney IRI,"C57bl/6 mice kidney IRI; 150 mg/kg/d intraperitoneal day before and day of operation, FIG. 6",significantly improve
same,"protection of kidney functions (BUN, Cr)","C57bl/6 mice kidney IRI; 150 mg/kg/d intraperitoneal, blood 24 hours later, FIG. 7",better protection effect
